The source of these data is US9067949B2, “Benzofuro[3,2-c] pyridines and related analogs as serotonin sub-type 6 (5-HT6) modulators for the treatment of obesity, metabolic syndrome, cognition and schizophrenia” (Albany Molecular Research, Inc., priority 2011, dated 2015).

Where two headings read alike, the source gives them in different places.

One series has as its target human 5-HT6 receptor (Homo sapiens (Human), UniProt P50406). Kind of series: 5-HT6 radioligand binding assay (SPA format, [N-methyl-3H]-LSD). The method, boiled down: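 Human 5-HT6 receptor membranes were incubated overnight at room temperature with 10 nM [N-methyl-3H]-LSD and competitor in 50 mM Tris-HCl pH 7.5, 5 mM MgCl2, 1 mM EDTA, 4% DMSO, read by SPA. Nonspecific binding was defined with 100 μM 5-HT. IC50 came from ten-point duplicate curves; Ki via Cheng-Prusoff.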

Where [1] appears, read: human 5-HT6 receptor membranes, 10 nM [N-methyl-3H]-LSD, Ki by Cheng-Prusoff, read-out: human 5HT6 Ki.

Sequence of human 5-HT6 receptor (P50406 whole entry): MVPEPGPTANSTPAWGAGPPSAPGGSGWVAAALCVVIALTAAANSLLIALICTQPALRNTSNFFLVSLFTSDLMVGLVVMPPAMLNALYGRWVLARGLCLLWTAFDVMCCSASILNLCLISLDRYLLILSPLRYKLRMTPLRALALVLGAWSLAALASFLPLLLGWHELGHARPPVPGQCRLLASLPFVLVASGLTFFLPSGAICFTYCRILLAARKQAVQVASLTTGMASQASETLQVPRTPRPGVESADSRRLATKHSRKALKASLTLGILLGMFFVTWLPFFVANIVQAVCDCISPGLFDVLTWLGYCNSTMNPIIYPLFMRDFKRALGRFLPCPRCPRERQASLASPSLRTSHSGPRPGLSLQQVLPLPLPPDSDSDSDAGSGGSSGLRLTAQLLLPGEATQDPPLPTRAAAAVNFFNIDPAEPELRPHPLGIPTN

In the case of `Cl.O=S(=O)(c1cccc(C(F)(F)F)c1)c1ccc2c3c(oc2c1)CC1CCC3N1` (stereo not shown) [Example 64, 3-(3-Trifluoromethylphenyl)sulfonyl-6,7,8,9,10-pentahydro-7,10-epiminocyclohepta[b]benzofuran hydrochloride], the melting point is 178 to 183 °C. Also, the Ki on human 5-HT6 receptor (setting [1]) came to 116 nM.

Regarding `CC1Cc2oc3c(Cl)cc(S(=O)(=O)c4ccccc4)cc3c2CN1.Cl` (single isomer, unassigned; (-)) [Example 83a, (−) 6-chloro-3-methyl-8-(phenylsulfonyl)-1,2,3,4-tetrahydrobenzofuro[3,2-c]pyridine hydrochloride], the melting point is 293 °C (dec.). Moreover, on human 5-HT6 receptor (human 5-HT6 receptor membranes, 10 nM [N-methyl-3H]-LSD, Ki by Cheng-Prusoff, hydrochloride, read-out: human 5HT6 Ki), the Ki came out at 25 nM.

`Cl.O=S(=O)(c1ccccc1)c1cc(Cl)c2oc3c(c2c1)CNCC3` [Example 44, 6-Chloro-8-(phenylsulfonyl)-1,2,3,4-tetrahydrobenzofuro[3,2-c]pyridine hydrochloride] came in with a melting point of 290 to 294 °C. Further, the inhibitory constant (Ki) on human 5-HT6 receptor (setting [1]) was 0.55 nM.

For the molecule `Cl.O=S(=O)(c1cccc(Cl)c1)c1ccc2oc3c(c2c1)CNCC3` [Example 30, 8-(3-Chlorophenylsulfonyl)-1,2,3,4-tetrahydrobenzofuro[3,2-c]pyridine hydrochloride], the melting point was 245 to 252 °C (dec.). Besides, on human 5-HT6 receptor (setting [1]), the Ki came out at 6.2 nM.

As to `Cl.O=S(=O)(c1cccc(Cl)c1)c1ccc2c3c(oc2c1)CCNC3` [Example 62, 7-(3-Chlorophenylsulfonyl)-1,2,3,4-tetrahydrobenzofuro[3,2-c]pyridine hydrochloride], the melting point lay in the range of 288 to 292 °C. For the same molecule, the inhibition constant (Ki) at human 5-HT6 receptor (setting [1]) was 1.7 nM.

Take `Cl.O=S(=O)(c1ccccc1)c1ccc2oc3c(c2c1)CNCCC3` [Example 69, 9-(Phenylsulfonyl)-2,3,4,5-tetrahydro-1H-benzofuro[3,2-c]azepine hydrochloride]: the melting point was 211 to 216 °C. In addition, the Ki at human 5-HT6 receptor (setting [1]) was 571 nM.

Take `Cl.N#Cc1ccc(S(=O)(=O)c2ccc3oc4c(c3c2)CNCC4)cc1` [Example 34, 8-(4-Cyanophenylsulfonyl)-1,2,3,4-tetrahydrobenzofuro[3,2-c]pyridine hydrochloride]: the melting point is 295 to 301 °C (dec.). The same molecule showed a Ki on human 5-HT6 receptor of 1320 nM.

The molecule `Cl.O=S(=O)(c1cccc(F)c1)c1cc(Cl)c2oc3c(c2c1)CNCC3` [Example 47, 6-Chloro-8-(3-fluorophenylsulfonyl)-1,2,3,4-tetrahydrobenzofuro[3,2-c]pyridine hydrochloride] gave a melting point of 276 to 278 °C. Besides, the Ki on human 5-HT6 receptor (setting [1]) was determined as 0.39 nM.

Molecule `Cl.O=S(=O)(c1ccccc1)c1ccc2oc3c(c2c1)CNCC3` [Example 28, 8-(Phenylsulfonyl)-1,2,3,4-tetrahydrobenzofuro[3,2-c]pyridine hydrochloride] gave a melting point of 243 °C. For the same molecule, at human 5-HT6 receptor (setting [1]), the Ki was 19 nM.

`CC(O)Cc1cc(S(=O)(=O)c2ccccc2)cc2c3c(oc12)CCNC3.Cl` (stereo not shown) [Example 80, 1-(8-(phenylsulfonyl)-1,2,3,4-tetrahydrobenzofuro[3,2-c]pyridin-6-yl)propan-2-ol hydrochloride]: the melting point was in the range of 283 to 284 °C. Further, the Ki at human 5-HT6 receptor (setting [1]) was found to be 19 nM.

`Cl.O=S(=O)(c1cccc(Cl)c1)c1ccc2oc3c(c2c1)C1CCC(C3)N1` (stereo not shown) [Example 56, 2-(3-Chlorophenyl)sulfonyl-6,7,8,9,10-pentahydro-7,10-epiminocyclohepta[b]benzofuran hydrochloride] displayed a melting point of 285 to 288 °C. Besides, the Ki at human 5-HT6 receptor (setting [1]) turned out to be 31 nM.

As for `CC1CNCc2c1oc1c(Cl)cc(S(=O)(=O)c3ccccc3)cc21.Cl` (stereo not shown) [Example 89, 6-chloro-4-methyl-8-(phenylsulfonyl)-1,2,3,4-tetrahydrobenzofuro[3,2-c]pyridine hydrochloride], the melting point is 291 to 292 °C (dec.). Also, at human 5-HT6 receptor (setting [1]), the Ki stood at 110 nM.

The molecule `Cl.O=S(=O)(c1ccc2oc3c(c2c1)CNCC3)n1ccc2ccc(F)cc21` [Example 42, 8-(6-fluoro-1H-indol-1-ylsulfonyl)-1,2,3,4-tetrahydrobenzofuro[3,2-c]pyridine hydrochloride] had a melting point of 199 to 203 °C. For the same molecule, the Ki at human 5-HT6 receptor (setting [1]) stood at 1.5 nM.

In turn, `O=S(=O)(c1ccccc1)c1cc(Cl)c2oc3c(c2c1)CC(O)CC3` (single isomer, unassigned; (-)) [Example 98, (−)-6-chloro-8-(phenylsulfonyl)-1,2,3,4-tetrahydrodibenzo[b,d]furan-2-ol] displayed a melting point of 236 to 240 °C. At human 5-HT6 receptor (setting [1]), the Ki worked out at 46 nM.

As to `Cl.O=S(=O)(c1ccc2oc3c(c2c1)CNCC3)c1cccc2ccccc12` [Example 39, 8-(1-Naphthylsulfonyl)-1,2,3,4-tetrahydrobenzofuro[3,2-c]pyridine hydrochloride], the melting point lay within 200 to 202 °C. Also, on human 5-HT6 receptor (setting [1]), the Ki turned out to be 5 nM.

`Cl.O=S(=O)(c1cccc(C(F)(F)F)c1)c1ccc2oc3c(c2c1)C1CCC(C3)N1` (stereo not shown) [Example 55, 2-(3-Trifluoromethylphenyl)sulfonyl-6,7,8,9,10-pentahydro-7,10-epiminocyclohepta[b]benzofuran hydrochloride] displayed a melting point of 296 to 298 °C. Also, on human 5-HT6 receptor (setting [1]), the Ki amounted to 53 nM.

Molecule `Cc1cn(S(=O)(=O)c2ccc3oc4c(c3c2)CNCC4)c2ccccc12.Cl` [Example 43, 8-(3-Methyl-1H-indol-1-ylsulfonyl)-1,2,3,4-tetrahydrobenzofuro[3,2-c]pyridine hydrochloride] returned a melting point of 293 to 296 °C. Besides, the Ki on human 5-HT6 receptor (setting [1]) came to 0.42 nM.

The molecule `COc1ccc(S(=O)(=O)c2ccc3oc4c(c3c2)CNCC4)cc1.Cl` [Example 33, 8-(4-Methoxyphenylsulfonyl)-1,2,3,4-tetrahydrobenzofuro[3,2-c]pyridine hydrochloride] gave a melting point of 270 to 272 °C. Moreover, the Ki on human 5-HT6 receptor (setting [1]) stood at 100 nM.

On to `Cl.O=S(=O)(c1ccccc1)c1cc(CCO)c2oc3c(c2c1)CNCC3` [Example 79, 2-(8-(phenylsulfonyl)-1,2,3,4-tetrahydrobenzofuro[3,2-c]pyridin-6-yl)ethanol hydrochloride], for which the melting point lay within 239 to 240 °C. For the same molecule, on human 5-HT6 receptor (setting [1]), the inhibition constant (Ki) came out at 4.3 nM.

On to `CC1(C)NCCc2oc3c(Cl)cc(S(=O)(=O)c4ccccc4)cc3c21.Cl` [Example 84, 6-chloro-1,1-dimethyl-8-(phenylsulfonyl)-1,2,3,4-tetrahydrobenzofuro[3,2-c]pyridine hydrochloride], for which the melting point was 282 to 287 °C (dec.). Further, the Ki on human 5-HT6 receptor (setting [1]) was determined as 27 nM.

Molecule `Cl.O=S(=O)(c1ccc2c3c(oc2c1)CC1CCC3N1)n1ccc2ccccc21` (stereo not shown) [Example 67, 3-(1H-indol-1-yl)sulfonyl-6,7,8,9,10-pentahydro-7,10-epiminocyclohepta[b]benzofuran hydrochloride] had a melting point of 192 to 196 °C. Further, the Ki on human 5-HT6 receptor (setting [1]) was found to be 34 nM.

In turn, `Cl.O=S(=O)(c1ccc2ccccc2c1)c1ccc2oc3c(c2c1)CNCC3` [Example 40, 8-(2-Naphthylsulfonyl)-1,2,3,4-tetrahydrobenzofuro[3,2-c]pyridine hydrochloride] gave a melting point of 267 to 270 °C. Besides, on human 5-HT6 receptor (setting [1]), the Ki came to 21 nM.

For the molecule `Cc1ccc(S(=O)(=O)c2ccc3oc4c(c3c2)CNCC4)cc1.Cl` [Example 35, 8-(4-Methylphenylsulfonyl)-1,2,3,4-tetrahydrobenzofuro[3,2-c]pyridine hydrochloride], the melting point lay in the range of 265 to 270 °C. Also, the Ki on human 5-HT6 receptor (setting [1]) came out at 38 nM.

In turn, `Cl.O=S(=O)(c1ccccc1)c1cc(Cn2cccn2)c2oc3c(c2c1)CNCC3` [Example 75, 6-((1H-pyrazol-1-yl)methyl)-8-(phenylsulfonyl)-1,2,3,4-tetrahydrobenzofuro[3,2-c]pyridine hydrochloride] showed a melting point of 145 to 148 °C. In addition, on human 5-HT6 receptor (setting [1]), the Ki was 124 nM.

Consider `Cl.O=S(=O)(c1cc(Cl)cc(Cl)c1)c1ccc2oc3c(c2c1)CNCC3` [Example 38, 8-(3,5-Dichlorophenylsulfonyl)-1,2,3,4-tetrahydrobenzofuro[3,2-c]pyridine hydrochloride], for which the melting point lay in the range of 312 to 315 °C. The inhibition constant (Ki) at human 5-HT6 receptor (setting [1]) was determined as 17 nM.

Molecule `Cl.O=S(=O)(c1ccccc1)c1ccc2c3c(oc2c1)CCCNC3` [Example 68, 8-(Phenylsulfonyl)-2,3,4,5-tetrahydro-1H-benzofuro[3,2-c]azepine hydrochloride] yielded a melting point of 221 to 225 °C. Also, the inhibition constant Ki at human 5-HT6 receptor (setting [1]) was found to be 132 nM.

Take `Cl.O=S(=O)(c1cccc(F)c1)c1ccc2oc3c(c2c1)CNCC3` [Example 29, 8-(3-Fluorophenylsulfonyl)-1,2,3,4-tetrahydrobenzofuro[3,2-c]pyridine hydrochloride]: the melting point was 262 to 272 °C (dec.). Besides, on human 5-HT6 receptor (setting [1]), the inhibition constant Ki came to 16 nM.

For `CN1CCc2oc3cc(S(=O)(=O)c4ccccc4)ccc3c2C1.Cl` [Example 61, 2-Methyl-7-(phenylsulfonyl)-1,2,3,4-tetrahydrobenzofuro[3,2-c]pyridine hydrochloride], the melting point fell in the range of 242 to 245 °C. Besides, the Ki at human 5-HT6 receptor (setting [1]) turned out to be 18 nM.

Molecule `Cl.O=S(=O)(c1ccc2oc3c(c2c1)CNCC3)n1ccc2ccccc21` [Example 41, 8-(1H-Indol-1-ylsulfonyl)-1,2,3,4-tetrahydrobenzofuro[3,2-c]pyridine hydrochloride] registered a melting point of 283 to 286 °C. Also, the Ki at human 5-HT6 receptor (setting [1]) turned out to be 0.58 nM.

Broadly, the Ki is the equilibrium dissociation constant of an inhibitor or competing ligand from its target. As usually defined, the melting point is the temperature, or range, at which the solid turns liquid.
